Data published in paper PMC10477861, “Efficient Mining of Anticancer Peptides from Gut Metagenome” (Advanced Science, 2023).

Legend:
Conditions in all cases: 25 µM pACP, 24 h, maintenance medium 1% FBS, ratio of viability to vehicle (PBS), at least three technical repetitions
MCF7 = assay: MTT primary screening of anticancer activity, MCF7; assay type: cell-based
How it was run: (§1)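 Single-concentration screen: cells at 60% confluence given peptide at 25 µM for 24 h in maintenance medium with 1% FBS. Viability by MTT kit; peptides with minimum effective inhibition concentration >25 µM deemed non-ACPs.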

T47D = assay: MTT primary screening of anticancer activity, T47D; assay type: cell-based
How it was run: as §1

CT26 = assay: MTT primary screening of anticancer activity, CT26; assay type: cell-based, Murine
How it was run: as §1

MDA-MB-231 = assay: MTT primary screening of anticancer activity, MDA-MB-231; assay type: cell-based
How it was run: as §1

MDA-MB-436 = assay: MTT primary screening of anticancer activity, MDA-MB-436; assay type: cell-based
How it was run: as §1

Caco2 = assay: MTT primary screening of anticancer activity, Caco2; assay type: cell-based, Human
How it was run: as §1

MDA-MB-468 = assay: MTT primary screening of anticancer activity, MDA-MB-468; assay type: cell-based
How it was run: as §1

B16 = assay: MTT primary screening of anticancer activity, B16; assay type: cell-based, Mouse
How it was run: as §1

LCC = assay: MTT primary screening of anticancer activity, LCC; assay type: cell-based
How it was run: as §1

EFM192A = assay: MTT primary screening of anticancer activity, EFM192A; assay type: cell-based
How it was run: as §1

Hela = assay: MTT primary screening of anticancer activity, Hela; assay type: cell-based, Human
How it was run: as §1

MDA-MB-453 = assay: MTT primary screening of anticancer activity, MDA-MB-453; assay type: cell-based
How it was run: as §1

HT29 = assay: MTT primary screening of anticancer activity, HT29; assay type: cell-based, Human
How it was run: as §1

HCT116 = assay: MTT primary screening of anticancer activity, HCT116; assay type: cell-based, Human
How it was run: as §1

BT474 = assay: MTT primary screening of anticancer activity, BT474; assay type: cell-based
How it was run: as §1

SK-BR-3 = assay: MTT primary screening of anticancer activity, SK-BR-3; assay type: cell-based
How it was run: as §1

Sequence | Survival rate of cancer cells in primary screening (MCF7) | Survival rate of cancer cells in primary screening (T47D) | Survival rate of cancer cells in primary screening (CT26) | Survival rate of cancer cells in primary screening (MDA-MB-231) | Survival rate of cancer cells in primary screening (MDA-MB-436) | Survival rate of cancer cells in primary screening (Caco2) | Survival rate of cancer cells in primary screening (MDA-MB-468) | Survival rate of cancer cells in primary screening (B16) | Survival rate of cancer cells in primary screening (LCC) | Survival rate of cancer cells in primary screening (EFM192A) | Survival rate of cancer cells in primary screening (Hela) | Survival rate of cancer cells in primary screening (MDA-MB-453) | Survival rate of cancer cells in primary screening (HT29) | Survival rate of cancer cells in primary screening (HCT116) | Survival rate of cancer cells in primary screening (BT474) | Survival rate of cancer cells in primary screening (SK-BR-3)
PVCRKEKKDGKRCVARYVEHFAGKDRRMQA [pACP1505] | 1.00 | 0.76 | 1.00 | 1.00 | 1.00 | 1.00 | 1.00 | 0.78 | 1.00 | 1.00 | 1.00 | 1.00 | 1.00 | 1.00 | 1.00 | 1.00
DSYGNRTEIERKIWRRYPCGYSCGTGEVKCDKEEWKKEYW [pACP264] | 0.72 | 0.70 | 1.00 | 1.00 | 1.00 | 1.00 | 1.00 | 0.73 | 1.00 | 1.00 | 1.00 | 1.00 | 1.00 | 1.00 | 1.00 | 1.00
GLTSESVKSRCVKCLLYIKKSGATHDDNALHRTYCRNNCYRL [pACP550] | 1.00 | 1.00 | 1.00 | 1.00 | 1.00 | 1.00 | 1.00 | 0.78 | 1.00 | 1.00 | 1.00 | 1.00 | 1.00 | 1.00 | 1.00 | 1.00
SVGKRCKMGKNYKTVPALKGIPLAGGTYNTRNRSGSG [pACP2037] | 1.00 | 0.74 | 1.00 | 1.00 | 1.00 | 1.00 | 1.00 | 0.78 | 1.00 | 1.00 | 1.00 | 1.00 | 1.00 | 1.00 | 1.00 | 1.00
YCIFFLDKGFPGILADFLCLAGKRTIKLKALKQLIRQQVY [pACP2286] | 0.76 | 0.63 | 1.00 | 1.00 | 1.00 | 1.00 | 1.00 | 0.77 | 1.00 | 1.00 | 1.00 | 1.00 | 1.00 | 1.00 | 0.72 | 1.00
NQRKRTACDRRRSICDERIAAGICKRNFRCKKYLKINGTIGLSIRLGKLG [pACP1381] | 1.00 | 1.00 | 1.00 | 1.00 | 1.00 | 0.69 | 1.00 | 0.76 | 1.00 | 1.00 | 1.00 | 1.00 | 0.69 | 1.00 | 1.00 | 1.00
RVYKFVDMIGEIGHGRENHIGSGFDERLCRNGACVDCYGKYLCCRTGDYP [pACP1836] | 1.00 | 1.00 | 1.00 | 1.00 | 1.00 | 1.00 | 0.70 | 1.00 | 1.00 | 1.00 | 1.00 | 1.00 | 0.77 | 0.79 | 1.00 | 1.00
QESDAKKYGVGGYFQGLLSQ [pACP1529] | 1.00 | 0.75 | 1.00 | 1.00 | 1.00 | 1.00 | 1.00 | 1.00 | 1.00 | 1.00 | 1.00 | 1.00 | 1.00 | 1.00 | 1.00 | 1.00
